Measured values published in US12534441B2, “Tryptamine analogues” (priority 2021, dated 2026).

Columns and labels:
[1] = tested on: serotonin (1a, 1b, 2a, 2c and 7 receptors); experiment: Serotonin receptor cAMP assay (Multispan, HTRF); type: cell-based, Human; details: percentage relative response vs 10 μM forskolin; serotonin control; FIG. 1
Procedure: Compounds 005, 008 and 018 were assayed using a serotonin (1a, 1b, 2a, 2c and 7 receptors) cAMP assay, provided by Multispan. The reference used was 10 μM forskolin (a cAMP activator) to calculate the percentage relative response, serotonin was used as the control. The results can be seen in FIG. 1.
cAMP Gs dynamic kit—cisbio—cat. No. 62AM4PEC
MULTISCREEN™ HEK293T Cell Line Stably Expressing Human 5-HT1A Receptor, Catalog DC1319a
MULTISCREEN™ HEK293T Cell Line Stably Expressing Human 5-HT1B Receptor, Catalog DC1320a
(§1) MULTISCREEN™ CHO-K1 Cell Line Stably Expressing Human 5-HT2A Receptor, Catalog DC1324-1
(§2) MULTISCREEN™ CHO-K1 Cell Line Stably Expressing Human 5-HT2C Receptor, Catalog DC1326-1
MULTISCREEN™ HEK293T Cell Line Stably Expressing Human 5-HT7 Receptor, Catalog DC1334

[2] = tested on: serotonin (2a, 2b and 2c receptors); experiment: Serotonin receptor inositol phosphate 1 (IP1) assay (Multispan); type: cell-based, Human; details: percentage relative response vs 1 μM serotonin; FIG. 2
Procedure: Compounds 005, 008 and 018 were assayed using a serotonin (2a, 2b and 2c receptors) inositol phosphate 1 (IP1) assay, provided by Multispan. The reference used was 1 μM serotonin to calculate the percentage relative response. The results can be seen in FIG. 2.
IP-One Gq kit—cisbio—cat. No. 62IPAPEB
as §1
MULTISCREEN™ CHO-K1 Cell Line Stably Expressing Human 5-HT2B Receptor, Catalog DC1325-1
as §2

5-HT2C Receptor = target: T1, 5-HT2C Receptor (Homo sapiens, UniProt P28335); experiment: Serotonin calcium (Ca2+) assay, 2c receptor; type: cell-based; details: percentage relative response vs 10 μM serotonin, RLU; FIG. 3
T1 construct: host or cells: CHO-K1
T1 sequence (P28335 33-458): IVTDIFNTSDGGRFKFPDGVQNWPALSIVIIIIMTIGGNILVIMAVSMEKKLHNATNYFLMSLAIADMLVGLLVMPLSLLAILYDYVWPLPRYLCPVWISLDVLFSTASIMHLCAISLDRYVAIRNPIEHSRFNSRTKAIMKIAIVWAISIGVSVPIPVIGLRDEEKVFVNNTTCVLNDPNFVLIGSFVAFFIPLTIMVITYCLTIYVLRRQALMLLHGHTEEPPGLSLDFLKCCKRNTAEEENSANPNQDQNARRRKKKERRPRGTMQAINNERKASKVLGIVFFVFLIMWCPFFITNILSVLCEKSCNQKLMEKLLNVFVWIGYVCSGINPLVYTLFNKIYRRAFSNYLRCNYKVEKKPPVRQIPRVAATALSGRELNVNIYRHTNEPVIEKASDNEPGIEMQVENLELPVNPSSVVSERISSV
Procedure: Compounds 005, 008 and 018 were assayed using a serotonin (2a, 2b and 2c receptors) calcium (Ca^2+) assay, provided by Multispan. The reference used was 10 μM serotonin to calculate the percentage relative response in relative light units (RLU). The results can be seen in FIG. 3. Some activity for compound 005 in the 2c receptor assay was detected.
FLIPR calcium 6 assay explorer kit—VWR—cat. No. MLDVR8190
as §2

HTR2A = target: T2, HTR2A (Homo sapiens, UniProt P28223); experiment: B-arrestin assay (DiscoverX PathHunter), 2a receptor; type: cell-based; details: percentage relative response vs 10 μM serotonin; FIG. 4
T2 construct: host or cells: U2OS
Procedure: (§3) Compounds 005, 008 and 018 were assayed using a serotonin (1a, 1b, 2a and 2c receptors) B-arrestin assay, provided by DiscoverX. The reference used was 10 μM serotonin to calculate the percentage relative response. The results can be seen in FIG. 4. […] The compounds were also assayed in a serotonin 2b receptor B-arrestin assay, the results of which can be seen in FIG. 5.
HTR2A PathHunter® eXpress HTR2A U2OS β-Arrestin GPCR Assay 93-0401E3CP19M 200 dp (2×96-well)

HTR2C = target: T3, HTR2C (Homo sapiens, UniProt P28335); experiment: B-arrestin assay (DiscoverX PathHunter), 2c receptor; type: cell-based; details: percentage relative response vs 10 μM serotonin; FIG. 4
T3 construct: host or cells: U2OS
T3 sequence (P28335 33-458): T1 sequence (P28335 33-458)
Procedure: as §3
HTR2C PathHunter® eXpress HTR2C U2OS β-Arrestin GPCR Assay 93-0289E3CP3M 200 dp (2×96-well)

T2 sequence (P28223 whole entry): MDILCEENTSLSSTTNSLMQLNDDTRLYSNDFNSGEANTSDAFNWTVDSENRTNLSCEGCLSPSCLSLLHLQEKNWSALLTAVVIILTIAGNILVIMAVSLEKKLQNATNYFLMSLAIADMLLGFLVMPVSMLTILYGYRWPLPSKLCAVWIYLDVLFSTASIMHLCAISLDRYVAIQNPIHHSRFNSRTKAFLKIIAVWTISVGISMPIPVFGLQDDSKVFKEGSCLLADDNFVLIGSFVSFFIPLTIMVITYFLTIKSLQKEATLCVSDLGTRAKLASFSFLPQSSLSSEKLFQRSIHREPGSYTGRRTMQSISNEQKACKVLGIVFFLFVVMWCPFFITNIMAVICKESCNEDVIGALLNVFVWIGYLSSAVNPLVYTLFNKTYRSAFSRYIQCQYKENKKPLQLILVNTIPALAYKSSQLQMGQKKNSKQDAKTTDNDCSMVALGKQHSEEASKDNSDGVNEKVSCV

Row | Compound | cAMP assay result (activation of the cAMP pathway) [1] | IP1 assay result (response curves) [2] | Ca2+ assay activity, 2c receptor (5-HT2C Receptor) | B-arrestin assay activity, 2a receptor (HTR2A) | B-arrestin assay activity, 2c receptor (HTR2C)
1 | CCN(C)CCc1c[nH]c2cccc(OC(=O)Nc3ccccc3)c12 [Compound 005, (S)-ethyl(methyl)(2-{4-[(phenylcarbam-oyl)oxy]-1H-indol-3-yl}ethyl)azanium] | may have some activation of the cAMP pathway | incomplete response curves in this assay, showing agonistic activity | Some activity | Some activity | appeared to have activity
2 | CCN(C)CCc1c[nH]c2cccc(Oc3ccccn3)c12 [Compound 008, (S)-ethyl(methyl){2-[4-(pyridin-2-yloxy)-1H-indol-3-ylethyl}-azanium] | – | incomplete response curves in this assay, showing agonistic activity | – | Some activity | –
3 | CC(C)N(C)[C@H](C)Cc1c[nH]c2ccccc12 [Compound 018, (R)-[(2R)-1-(1H-indol-3-yl)propan-2-yl](methyl)(propan-2-yl)azanium] | – | incomplete response curves in this assay, showing agonistic activity | – | Some activity | –
